Results taken from patent publication US7468449B2, “Phenyl-furan compounds as vitamin D receptor modulators” (Eli Lilly and Company, priority 2003, dated 2008).
Values joined by “and” are separate entries in the source; they are usually repeats but may differ in a detail not shown here. Identical values can stand only once. Like-named read-outs stand apart in the source and are kept apart here.

Columns and labels:
[1] = tested on: rat osteocalcin promoter; test: OCN (osteocalcin) promoter assay; type: cell-based; conditions: RG-15 (ROS 17/2.8) cells, 48 hr treatment
Method: 3. The OCN (osteocalcin) Promoter Assay
The OCN Promoter Assay is an indicator and marker for osteoporosis. […] Preferred assay results are less than 50 nM.
(3) Materials and Method for The OCN Promoter Assay:
The activation of osteocalcin by VDR ligands was evaluated in a rat osteoblast-like cell line RG-15 (ROS 17/2.8) stably expressing rat osteocalcin promoter fused with luciferase reporter gene. […] After 24 hr, cells (in DMEM/F-12 medium +2% FBS) were treated with various concentrations of compounds, dissolved in DMSO. The final DMSO concentration remained at 0.01% (v/v). After 48 hr treatment, the medium was removed, cells were lysed with 50 μl of lysis buffer (From Luciferase reporter assay system, Roche Diagnostics, Indianapolis, Ind.) and assayed for luciferase activity using the Luciferase Reporter Gene Assay kit from Boehringer Mannheim as per manufacturer's specifications.

[2] = tested on: KERtr cells; test: Keratinocyte proliferation assay; type: cell-based, Human; conditions: BrdU incorporation
Method: 5. The Keratinocyte Proliferation Assay
This Assay is indicative for the treatment of psoriasis.
(5) The Keratinocyte Proliferation Assay:
KERtr cells (Human skin keratinocyte transformed with a retrovirus vector, obtained from ATCC) were plated in 96-well flat-bottomed plates (3000 cells/well) in 100 μl keratinocyte serum free medium supplemented with bovine pituitary extract in the absence of EGF (Life Technologies, Rockville, Md.) and incubated at 37° C. for two days. The cells were treated with various concentrations of VDR ligands (ten-fold serial dilution from 10,000 nM to 0.1 nM in triplicate), dissolved in 100 μl keratinocyte serum free medium supplemented with bovine pituitary extract in the absence of EGF and incubated at 37° C. for 72 hr. […] Potency values (IC50) values were determined as the concentration (nM) of compound that elicited a half-maximal response.

[3] = Mouse hypercalcemia assay; conditions: six day hypercalcemia test, oral gavage, serum ionized calcium
Method: The Mouse Hypercalcemia Assay
The Mouse Hypercalcemia Assay is a six day hypercalcemia test for toxicity and selectivity. Acceptable test results are levels greater than 300 μg/kg/day. Preferred assay results are levels greater than 1000 μg/kg/day.
(4) Materials and Method for The Mouse Hypercalcemia Assay:
Weanling, virus-antibody-free, five to six weeks old female DBF mice (Harlan, Indianapolis, Ind.) are used for all the studies. Animals are allowed to acclimate to local vivarium conditions for 2 days. […] The animals then are divided into groups with 4-5 mice per group. Different doses of test compounds prepared in 10% Ethanol and 90% sesame oil are administered to mice orally via gavage for 6 days. 1α-25(OH)2D3 0.5 μg/kg/d was also given to one group of mice as the positive control. […] Raw data of group differences is assessed by analysis of variance (ANOVA) using Fisher's protected least significant difference (PLSD) where the significance level was P<0.05.

[4] = molecular target: T1, VDR (Homo sapiens, UniProt P11473); test: VDR CTF (Caco-2 cell co-transfection) assay; type: cell-based; conditions: Caco-2 cells, Gal-4-VDR-LBD co-transfection; Table 1
T1 construct: the receptor expression vector pGal-4-VDR-LBD (10 ng); expressed in transfected cells; host or cells: Caco-2 cells
T1 sequence (P11473 127-423 limits assumed): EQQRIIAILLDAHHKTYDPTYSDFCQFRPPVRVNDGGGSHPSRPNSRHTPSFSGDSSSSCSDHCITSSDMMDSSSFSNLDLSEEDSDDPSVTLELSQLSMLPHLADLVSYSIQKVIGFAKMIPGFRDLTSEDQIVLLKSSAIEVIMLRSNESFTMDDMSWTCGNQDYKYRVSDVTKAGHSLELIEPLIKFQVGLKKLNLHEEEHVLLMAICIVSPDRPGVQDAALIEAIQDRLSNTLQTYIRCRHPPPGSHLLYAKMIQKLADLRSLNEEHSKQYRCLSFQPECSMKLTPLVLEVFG
Method: 2. The Caco-2 Cell Co-transfection Assay:
The Caco-2 cell assay is an indicator for the undesirable condition of hypercalcemia. This co-transfection assay is a surrogate assay for in vivo calcemic activity of VDR ligands. […] Preferred assay results are greater than 1000 nM.
(§1) Step 4: FuGENE, DNA and Media Complex to-well plate • Add FuGENE-DNA-Media complex from step 3 to each plate • Incubate. […] Day 4: Luciferase Assay • Read the plates after drug treatment • Remove part of media from all the wells and leave remainder • Add Steady-Glo Luciferase Reagent mixture/wells • Incubate • Count each well using a Luminescence counter, Top Count NXT by Packard Set a delay between plates to reduce the background. (2) Materials and Method for The Caco-2 Cell Assay:
Caco-2 cells, grown in phenol red free, DMEM (Invitrogen, Carlsbad, Calif.) containing 10% charcoal-stripped FCS (Hyclone, Logan, Utah), were transfected with Fugene 6 reagent (Roche Diagnostics, Indianapolis, Ind.). Cells (5000/well) were plated 18 h before transfection in a 96 well plate. The Cells were transfected with Gal-4-responsive reporter pFRLuc (150 ng, Stratagene, La Jolla Calif.) and the receptor expression vector pGal-4-VDR-LBD (10 ng), along with Fugene 6 reagent (0.2 μl/well). The DNA-Fugene complex was formed by incubating the mixture for 30 min at room temperature. The cells were transfected in triplicate for 5 h, and treated with various concentrations of VDR ligands (form 0.01 nM to 10,000 nM concentration range) 18 h post-transfection. The luciferase activity was quantified using Steady-Glo reagent kit (Promega, Madison, Wis.) as per manufacturer's specifications.

[5] = molecular target: T2, RXR-VDR heterodimer (Homo sapiens, UniProt P11473); test: RXR-VDR heterodimerization assay (SaOS-2 cells); type: cell-based; conditions: luciferase reporter, Table 1
T2 construct: Add the Gal-4-RXR-DEF and VP16-VDR-LBD; expressed in transfected cells; host or cells: SaOs-2 cells
T2 sequence (P11473 127-423 limits assumed): T1 sequence (P11473 127-423 limits assumed)
T2 sequence (P19793 201-462 partner limits assumed): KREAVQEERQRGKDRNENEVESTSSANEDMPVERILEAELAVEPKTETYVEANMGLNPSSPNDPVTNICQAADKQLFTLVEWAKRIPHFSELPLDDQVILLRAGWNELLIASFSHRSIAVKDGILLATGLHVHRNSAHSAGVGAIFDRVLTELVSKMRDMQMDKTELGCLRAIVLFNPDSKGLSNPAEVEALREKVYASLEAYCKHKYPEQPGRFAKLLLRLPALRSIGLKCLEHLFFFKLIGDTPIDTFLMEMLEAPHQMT
From the text: 1. The RXR-VDR Heterodimer Assay:
This assay provides the VDR activity of a test compound.
(1) Materials and Method for RXR-VDR Heterodimerization Assay:
Transfection/Treatment Media: • D-MEM Low Glucose Without Phenol Red only
Flat well Plates: • Use well plate to plate cells • Use Deep well plate sterile to make up treatment media.
Luciferase Assay Reagent: • Use Steady-Glo Luciferase Reagent from Promega (Cat #E2550) Consists of: • a. E2533 Assay Substrate, lyopholized product and • b. E2543 Assay Buffer. • Thaw at room temperature • Store Day 1: Cell Plating: • Cell Harvesting • Aspirate media from culture flask, rinse cells with HBSS and aspirate. • Add trypsin and incubate. • When cells appear detached, resuspend cells in growth media. • Transfer into a new flask with fresh growth media for passaging the cells. • Plate well plates and two extra plates A. Cell Count • Mix the cell suspension using pipette • Use Hematocytometer to count the cells • Load cell suspension onto the hemocytometer chamber • Count cells.
Step 1: DNA and Media • Add plain DMEM media to tubes for mixing the DNA • Add the Reporter gene pFR-LUC • Add the Gal-4-RXR-DEF and VP16-VDR-LBD
Step 2: FuGENE and Media • Prepare plain DMEM media in a ubes for mixing PuGENE • Add FuGENE 6 Transection Reagent • Incubate
Step 3: FuGENE, DNA and Media Complex • Add FuGENE Media complex from step 2 to DNA Media complex from step1 • Incubate
as §1, with “Assay: […]” for “Assay:”

[6] = 72 hr, Table 2, read-out: Kera. Prolif. IC50
[7] = Rattus norvegicus, 48 h, Table 1
[8] = Rattus norvegicus, 48 h, Table 3 comparison compounds
[9] = Homo sapiens, Keratinocyte, 72 h, Table 4 comparison compounds, read-out: Kera. Prolif. IC50

SMILES: CCN(CC)C(=O)c1ccc(C(CC)(CC)c2ccc(OCC(=O)C(C)(C)C)c(C)c2)o1 [Ex 7, 3′-[4-(2-oxo-3,3-dimethyl-butoxy)-3-methylphenyl]-3′-[5-diethylaminocarbonyl-2-furanyl]-pentane]
- EC50 ([1]; Table 1): 95 nM
- IC50 [2, 6]: 23 nM
- Mouse Hypercal ([3]; Table 1): >9000 µg/kg/day

SMILES: CCC(CC)(c1ccc(OCC(O)C(C)(C)C)c(C)c1)c1ccc(C(=O)N(C)C)o1 (racemic) [Ex. 2, 3′-[4-(2-hydroxy-3,3-dimethylbutoxy)-3-methylphenyl]-3′-[5-dimethylaminocarbonyl-2-furanyl]pentane]
- EC50 [4]: 25 nM
- EC50 [1, 7]: 3 nM

SMILES: CCC(C)c1cc(C(CC)(CC)c2ccc(C(=O)N(C)C)o2)ccc1OCC(=O)C(C)(C)C (centres unmarked) [Ex. 5, 3′-[4-(2-oxo-3,3-dimethylbutoxy)-3-(2-butyl)phenyl]-3′-[5-dimethylaminocarbonyl-furan-2-yl]pentane]
- EC50 [5]: 135 nM and 40 nM
- EC50 [4]: 129 nM
- EC50 ([1]; Table 1): 44 nM
- EC50 [1, 7]: 33 nM
- IC50 ([2]; Homo sapiens, Keratinocyte, 72 h, Table 2, read-out: Kera. Prolif. IC50): 1000 nM

SMILES: CCC(O)(CC)COc1ccc(C(CC)(CC)c2ccc(C(=O)N(C)C)o2)cc1C [Ex 14, 3′-[4-(2-hydroxy-2-ethylbutoxy)-3-methylphenyl]-3′-[5-dimethylaminocarbonyl-2-furanyl]pentane]
- EC50 [5]: 104 nM
- EC50 [4]: 635 nM
- EC50 [1, 7]: 101 nM

SMILES: CCC(CC)(c1ccc(OCC(O)C(C)(C)C)c(C)c1)c1ccc(C(=O)N(C)C)o1 (single isomer, unassigned) [Ex. 3, 3′-[4-(2-hydroxy-3,3-dimethylbutoxy)-3-methylphenyl]-3′-[5-dimethylaminocarbonyl-2-furanyl]pentane]
- EC50 [4]: 391 nM
- EC50 ([1]; Table 1): 4.6 nM and 2.5 nM
- IC50 [2, 6]: 1 nM
- Mouse Hypercal ([3]; Table 1): >2000 µg/kg/day

SMILES: CCC(CC)(c1ccc(OCC(O)CO)c(C)c1)c1ccc(OCC(O)C(C)(C)C)c(C)c1 (centres unmarked) [BB, 3-(4-{1-Ethyl-1-[4-(2-hydroxy-3,3-dimethyl-butoxy)-3-methyl-phenyl]-propyl}-2-methyl-phenoxy)-propane-1,2-diol, reference compound]
- EC50 [1, 8]: 8.24 nM
- IC50 [2, 9]: 10 nM
- Mouse Hypercal μg/Kg/d ([3]; Table 3 comparison compounds): >=20 μg/Kg/d

SMILES: CCC(CC)(c1ccc(OCC(=O)C(C)(C)C)c(C)c1)c1ccc(OC[C@H](O)C(C)(C)C)c(C)c1 [EE, reference compound]
- EC50 [1, 8]: 341 nM
- Mouse Hypercal ([3]; Table 3 comparison compounds): 1000 µg/kg/day

SMILES: CCNC(=O)c1ccc(C(CC)(CC)c2ccc(OCC(=O)C(C)(C)C)c(C)c2)o1 [Ex. 6, 3′-[4-(2-oxo-3,3-dimethyl-butoxy)-3-methylphenyl]-3′-[5-ethylaminocarbonyl-2-furanyl]-pentane]
- EC50 [5]: 320 nM
- EC50 [4]: 315 nM
- EC50 ([1]; Table 1): > 1000 nM
- IC50 [2, 6]: 112 nM

SMILES: CCc1cc(C(CC)(CC)c2ccc(C(=O)N(C)C)o2)ccc1OCC(O)C(C)(C)C (single isomer, unassigned; enantiomer 1) [Ex. 10, 3′-[4-(2-hydroxy-3,3-dimethyl-butoxy)-3-ethylphenyl]-3′-[5-dimethylaminocarbonyl-2-furanyl]pentane enantiomer 1]
- EC50 [4]: 191 nM
- IC50 [2, 6]: 7 nM
- Mouse Hypercal ([3]; Table 1): >1000 µg/kg/day

SMILES: CCCc1cc(C(CC)(CC)c2ccc(C(=O)N(C)C)o2)ccc1OCC(O)C(C)(C)C (single isomer, unassigned; enantiomer 1) [Ex. 12, 3′-[4-(2-hydroxy-3,3-dimethyl-butoxy)-3-n-propyl-phenyl]-3′-[5-dimethylaminocarbonyl-2-furanyl]pentane enantiomer 1]
- EC50 [5]: 188 nM
- EC50 [4]: 187 nM
- IC50 [2, 6]: 17 nM

SMILES: CCC(CC)(c1ccc(OCC(O)C(C)(C)C)c(C)c1)c1ccc(C(=O)N(C)C)o1 (single isomer, unassigned) [Ex. 4, 3′-[4-(2-hydroxy-3,3-dimethylbutoxy)-3-methylphenyl]-3′-[5-dimethylaminocarbonyl-2-furanyl]pentane]
- EC50 [4]: 333 nM
- EC50 ([1]; Table 1): 2 nM and 1 nM
- IC50 [2, 6]: 4 nM
- Mouse Hypercal ([3]; Table 1): >2000 µg/kg/day

SMILES: CCC(CC)(c1ccc(OCC(=O)C(C)(C)C)c(C)c1)c1oc(C(=O)N(C)C)cc1C [Ex. 8, 3′-[4-(2-oxo-3,3-dimethyl-butoxy)-3-methylphenyl]-3′-[5-dimethylaminocarbonyl-3-methyl-2-furanyl]-pentane]
- EC50 [5]: 156 nM
- EC50 [4]: 758 nM
- EC50 ([1]; Table 1): 125 nM
- IC50 [2, 6]: > 1000 nM

SMILES: CCC(CC)(c1ccc(OCC(=O)C(C)(C)C)c(C)c1)c1ccc(OCC(=O)C(C)(C)C)c(C)c1 [DD, reference compound]
- EC50 [1, 8]: 31.1 nM
- IC50 [2, 9]: 1060 nM
- Mouse Hypercal ([3]; Table 3 comparison compounds): 1000 µg/kg/day

SMILES: Cc1cc(C2(c3ccc(OCC(=O)C(C)(C)C)c(C)c3)CCCCC2)ccc1OCC(=O)C(C)(C)C [CC, 1-(4-{1-[4-(3,3-Dimethyl-2-oxo-butoxy)-3-methyl-phenyl]-cyclohexyl}-2-methyl-phenoxy)-3,3-dimethyl-butan-2-one, reference compound]
- EC50 [1, 8]: > 1000 nM
